Laboratory results: patent US20240398738A1, “MANIPULATION OF THE RETINOIC ACID SIGNALING PATHWAY” (THE REGENTS OF THE UNIVERSITY OF CALIFORNIA, priority 2017, published 2024)

Tests used:
RGCs in rd1 retina [1] = assay: MEA recording of photoswitch (QAQ, BENAQ) photosensitization in rd1 retina; type: in vivo, mouse; conditions: rd1 retina without BMS-493, mean±SEM
Description: (§1) Intravitreal Injections. Before injection, mice were anesthetized with isoflurane (2%) and their pupils were dilated with tropicamide (1%) and phenylephrine (2.5%). Proparacaine (0.5%) was used as a topical analgesic. Genteal was applied under a glass coverslip to keep the cornea lubricated. An incision was made through the sclera below the ora serrata with a 30G needle and ˜1 μl of solution was injected into the vitreous with a blunt-ended 33G Hamilton syringe. After injection, the antibiotic tobramycin (0.3%) was applied to the eye. Final drug concentrations after intravitreal injection were: all-trans retinoic acid (ATRA, 100 nM), liarozole (100 μM), diethylaminobenzaldehyde (DEAB, 20 μM), citral (50 μM), BMS-493 (500 nM), and retinaldehyde (1 μM). The above values correspond to the final concentration in the eye after injecting 1 μl of drug accounting for a 5-fold dilution. An injection of PBS including 1% DMSO was used as vehicle control.
(§2) Multi Electrode Array Recordings. For extracellular recordings, a flat-mounted retina was placed ganglion cell layer down onto a 60-electrode Multi-Electrode Array (MEA 1060-2-BC, Multi-Channel Systems). After mounting the retina, photoswitches were applied for 30 min, followed by a 15 min wash. BENAQ was applied at a concentration of 100 μM and QAQ at 300 μM. A solution containing a mixture of neurotransmitter receptor blockers isolated RGCs from synaptic inputs: (in μM) 10 AP4, 40 DNQX, 30 AP5, 10 SR-95531, 50 TPMPA, 10 strychnine, and 50 tubocurarine. Extracellular spikes were high-pass filtered at 200 Hz and digitized at 20 kHz and were counted when exceeding 4 SD from the mean background voltage signal. Typically, each electrode recorded spikes from one to three individual RGCs. Principal component analysis of the spike waveforms was used for sorting spikes generated by individual cells (Offline Sorter, Plexon). Stimulation light was generated from a mercury arc lamp. Unfiltered broad spectrum light was used for BENAQ-treated retinas. Narrow band optical filters (Chroma) were used to deliver alternating intervals of 380 nm and 500 nm for stimulation of QAQ-treated as described previously (5,12). The Photoswitch Index (5) (PI) was established for individual retinas in light/darkness for treatment with BENAQ or in 380 nm/500 nm light for treatment with QAQ (11,12).
(§3) Injections. Intravitreal injections: Adult mice and rats were intravitreally injected with drugs or viruses. Before injection, animals were anesthetized with isoflurane (2%) and their pupils were dilated with tropicamide (1%) and phenylephrine (2.5%). Proparacaine (0.5%) was used as a topical analgesic. Genteal was applied under a glass coverslip to keep the cornea lubricated. An incision was made through the sclera below the ora serrata with a 30G needle. Solutions were injected into the vitreous with a blunt-ended 33G Hamilton syringe. After injection, the antibiotic tobramycin (0.3%) was applied to the eye. Final drug concentrations (after 5-fold dilution in the vitreous) were: 100 nM all-trans retinoic acid (ATRA), 100 μM liarozole (24), 20 μM diethylaminobenzaldehyde (DEAB) (28,93), 50 μM citral, 500 nM BMS 493 (85), 1 μM retinaldehyde, and vehicle comprising of 1× phosphate buffered saline (PBS) containing 1% dimethyl sulfoxide (DMSO). Intravitreal injections were performed using AAV2 serotype only. WT and rd1 mice were injected with the RAR-reporter virus or the RARDN virus, at age 1-1.5 month-old. […]

RGCs in rd1 retina [2] = assay: YO-PRO-1 loading assay (dye permeability of RGCs) in rd1 retina after intravitreal injection; type: in vivo, mouse; conditions: for Yo-Pro-1 labeling of rd1-RGCs, result in words: rd1, intravitreal injection, compared to vehicle-injected; for percentage of YO-PRO-1 positive cells (fraction of RGC nuclei labeled): rd1 mice, intravitreal injection, measured 3-7 days after, BMS-493 500 nM, DEAB 20 uM, citral 50 uM, mean±SEM
Description: as §1
(§4) Yo-PRO-1 Loading Assay. After dissection, retinas were cut into thirds and mounted on a windowed nitrocellulose filter paper. Retinas were treated with 200 nM Yo-PRO-1 (Life Technologies) in oxygenated ACSF for 15 minutes, followed by treatment and then treated with nuclear ID (Enzo Life Sciences) at a 1:500 dilution for 3 minutes. ACSF was perfused continuously at 3 ml/min for a period of 5 minutes to wash away excess dye. In experiments employing TNP-ATP (200 μm), the retinas was pretreated with the compound for ten minutes before beginning YO-PRO-1 treatment.
(§5) Image analysis. All image analysis was performed using ImageJ or Fiji software (55,56). Yo-PRO-1 loading assay, ROIs were manually selected using the nuclear-ID channel based upon morphological characteristics. This was performed after computationally flattening the retina by performing a maximum Z projection onto a single plane. Following this, a background subtraction was performed with a rolling radius of 50 pixels. Cells identified as vascular endothelial cells or pericytes were not included in the analysis. This was confirmed using transillumination. A threshold for YO-PRO-1 loading was established by measuring the level of autofluorescence of untreated retinas in each channel and finding a baseline value with +2SD being the threshold for a YO-PRO-1 positive cell. Nuclear-ID was used to count the total number of cells within a field of view. The percentage of cells above the threshold was then calculated for comparison. For analysis of RARE double reporter virus assay, ROIs were manually selected on the RFP channel first and then superimposed to the GFP channel. Single cell values for both RFP and GFP were filtered by using a RFP minimum threshold established in naive unlabeled retinas.
as §3, with “month-old. WT and s334ter rats were injected with the RAR-reporter virus at age 3-4 month-old. Final volume of injections was 1-1.5 μL for mice and 5 μL for rats.” for “month-old.”

RGCs in WT retina [3] = assay: YO-PRO-1 loading assay (dye permeability of RGCs) in WT retina after intravitreal injection; type: in vivo, mouse; conditions: for percentage of YO-PRO-1 positive cells: intravitreal injection 3-7 days before, ATRA 100 nM, liarozole 100 μM, retinaldehyde 1 μM, DEAB 20 μM; for Yo-Pro-1 labeling of WT-RGCs, result in words: WT retina, substance injected intravitreally alone
Description: as §1, §4, §5
as §3, with “month-old. WT and s334ter rats were injected with the RAR-reporter virus at age 3-4 month-old. Final volume of injections was 1-1.5 μL for mice and 5 μL for rats.” for “month-old.”

gap junctions = conditions: micromolar concentrations are required; cited from earlier work
RGCs in WT retina [4] = assay: MEA recording of photoswitch (QAQ, BENAQ) photosensitization in WT retina; type: in vivo, mouse
Description: as §1, §2
Injections. Intravitreal injections: Adult mice and rats were intravitreally injected with drugs or viruses. Before injection, animals were anesthetized with isoflurane (2%) and their pupils were dilated with tropicamide (1%) and phenylephrine (2.5%). Proparacaine (0.5%) was used as a topical analgesic. Genteal was applied under a glass coverslip to keep the cornea lubricated. An incision was made through the sclera below the ora serrata with a 30G needle. Solutions were injected into the vitreous with a blunt-ended 33G Hamilton syringe. After injection, the antibiotic tobramycin (0.3%) was applied to the eye. Final drug concentrations (after 5-fold dilution in the vitreous) were: 100 nM all-trans retinoic acid (ATRA), 100 μM liarozole (24), 20 μM diethylaminobenzaldehyde (DEAB) (28,93), 50 μM citral, 500 nM BMS 493 (85), 1 μM retinaldehyde, and vehicle comprising of 1× phosphate buffered saline (PBS) containing 1% dimethyl sulfoxide (DMSO). Intravitreal injections were performed using AAV2 serotype only. WT and rd1 mice were injected with the RAR-reporter virus or the RARDN virus, at age 1-1.5 month-old. WT and s334ter rats were injected with the RAR-reporter virus at age 3-4 month-old. Final volume of injections was 1-1.5 μL for mice and 5 μL for rats.
Multi Electrode Array Recordings. Flat-mounted retina was placed ganglion cell layer down onto a 60-electrode Multi-Electrode Array (MEA 1060-2-BC, Multi-Channel Systems). After mounting the retina was left to dark adapt for 20 minutes under constant perfusion with oxygenated saline at 34° C. 300 μM QAQ at was applied for 30 min, followed by a 5 min wash. […]

**Q.** For `CCN(Cc1ccccc1)c1ccc(/N=N/c2ccc(NC(=O)C[N+](CC)(CC)CC)cc2)cc1` [BENAQ, benzylethylamino-azobenzene-quaternary ammonium], which “Photoswitch Index (PI) of BENAQ” value (RGCs in rd1 retina [1]; white light/darkness) is on record?
**A.** Its value is 0.56±0.03.

**Q.** With `CCN(CC)c1ccc(C=O)cc1` [DEAB, diethylaminobenzaldehyde] as the compound, how does the “Yo-Pro-1 labeling of rd1-RGCs, result in words” value (RGCs in rd1 retina [2]) read?
**A.** The value was “significantly reduced the percentage of rd1-RGCs labeled with Yo-Pro-1”.

**Q.** And the “percentage of YO-PRO-1 positive cells (fraction of RGC nuclei labeled)” value (RGCs in rd1 retina [2])?
**A.** The value was 19.77±2.32%.

**Q.** What about the “percentage of YO-PRO-1 positive cells, retinaldehyde co-injected with DEAB” value (RGCs in WT retina [3]; WT mice, co-injection with retinaldehyde, 3-7 days before imaging, mean±SEM) of the same compound?
**A.** The value was 7.65±1.34%.

**Q.** And the “percentage of YO-PRO-1 positive cells” value (RGCs in WT retina [3]; WT mice, mean±SEM)?
**A.** Its value is 7.47±1.21%.

**Q.** And the “Yo-Pro-1 labeling of WT-RGCs, result in words” value (RGCs in WT retina [3])?
**A.** The value was “caused no change in Yo-Pro-1 labeling”.

**Q.** For `Cc1ccc(Cl)c(Nc2ccccc2C(=O)O)c1Cl` [Meclofenamic acid], which “effect on RGC light responses” value (gap junctions) is on record?
**A.** Its value is “augments RGC light responses by reducing hyperactivity”.

**Q.** For `CC[N+](CC)(CC)CC(=O)Nc1ccc(N=Nc2ccc(NC(=O)C[N+](CC)(CC)CC)cc2)cc1` [QAQ, quaternary ammonium-azobenzene-quaternary ammonium], which “Photoswitch Index (PI) of QAQ” value (RGCs in rd1 retina [1]; QAQ 300 μM, 380/500 nm) is on record?
**A.** Its value is 0.63±0.12.

**Q.** For `CC1=C(/C=C/C(C)=C/C=C/C(C)=C/C=O)C(C)(C)CCC1` [Retinaldehyde, retinaldehyde], which “percentage of YO-PRO-1 positive cells” value (RGCs in WT retina [3]; WT mice, mean±SEM) is on record?
**A.** The value was 14.6±2.29%.

**Q.** And the “Yo-Pro-1 labeling of WT-RGCs, result in words” value (RGCs in WT retina [3])?
**A.** Its value is “significantly increasing Yo-Pro-1 labeling above baseline”.

**Q.** With `CC(C)=CCCC(C)=CC=O` [citral] as the compound, how does the “Yo-Pro-1 labeling of rd1-RGCs, result in words” value (RGCs in rd1 retina [2]) read?
**A.** Its value is “significantly reduced the percentage of rd1-RGCs labeled with Yo-Pro-1”.

**Q.** And the “percentage of YO-PRO-1 positive cells (fraction of RGC nuclei labeled)” value (RGCs in rd1 retina [2])?
**A.** Its value is 9.87±2.39%.

**Q.** What does the source list for `Clc1cccc(C(c2ccc3[nH]cnc3c2)n2ccnc2)c1` (stereo not shown) [liarozole]?
**A.** percentage of YO-PRO-1 positive cells (RGCs in WT retina [3]; WT mice, mean±SEM): 8.66±1.36%; Yo-Pro-1 labeling of WT-RGCs, result in words (RGCs in WT retina [3]): had no effect by itself; QAQ photosensitization of WT retina, in words (RGCs in WT retina [4]; WT retina, 3-7 days after intravitreal injection): Neither ATRA nor liarozole alone enabled significant QAQ photosensitization; Photoswitch Index (PI) with QAQ (RGCs in WT retina [4]; WT retina, 3-7 days after intravitreal injection, QAQ 300 μM, mean±SEM): 0.27±0.13

**Q.** For TNP-ATP, which “percentage of YO-PRO-1 positive cells, ATRA-induced labeling with blocker” value (RGCs in WT retina [3]; WT mice injected with ATRA, TNP-ATP bath-applied ex vivo or BMS-493 co-injected, mean±SEM) is on record?
**A.** Its value is 0.39±0.31%.

**Q.** What about the “Photoswitch Index (PI) with QAQ, ATRA plus liarozole with TNP-ATP” value (RGCs in WT retina [4]; WT retina injected with ATRA plus liarozole, TNP-ATP bath-loaded, mean±SEM) of the same compound?
**A.** The value was 0.19±0.14.

**Q.** And the “effect on QAQ photosensitization induced by ATRA plus liarozole, in words” value (RGCs in WT retina [4]; WT retina, TNP-ATP bath-loaded)?
**A.** Its value is “blocked by TNP-ATP”.
